Reference: PubChem BioAssay (NCI)
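Assay format: 96-well plates, 48-hour exposure. At the GI50, growth is halved. The concentration for full growth arrest is given as TGI.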

Tests used:
Test in all cases: inhibition of tumour cell growth, NCI panel, 48 h
[1] = system: NCI-H460 lung
[2] = system: 786-0 renal
[3] = system: SR leukemia
[4] = system: SK-MEL-5 melanoma
[5] = system: UACC-257 melanoma
[6] = system: KM12 colon
[7] = system: MALME-3M melanoma
[8] = system: NCI/ADR-RES ovarian
[9] = system: HT29 colon
[10] = system: ACHN renal
[11] = system: NCI-H522 lung
[12] = system: TK-10 renal
[13] = system: CAKI-1 renal
[14] = system: CCRF-CEM leukemia
[15] = system: HOP-62 NSCLC
[16] = system: MDA-MB-435
[17] = system: SN12C renal
[18] = system: LOX IMVI melanoma
[19] = system: SNB-19 CNS
[20] = system: DU-145 prostate
[21] = system: SW-620 colon
[22] = system: UO-31 renal
[23] = system: HL-60(TB) leukemia
[24] = system: BT-549 breast
[25] = system: HOP-92 NSCLC
[26] = system: UACC-62 melanoma
[27] = system: NCI-H226 lung
[28] = system: SF-539 CNS
[29] = system: IGROV1 ovarian
[30] = system: HCT-15 colon
[31] = system: COLO 205 colon
[32] = system: OVCAR-4 ovarian
[33] = system: HCC-2998 colon
[34] = system: OVCAR-8 ovarian
[35] = system: SF-268 CNS
[36] = system: NCI-H23 lung
[37] = system: MDA-MB-468 breast
[38] = system: RXF 393 renal
[39] = system: MCF7 breast
[40] = system: SF-295 CNS
[41] = system: RPMI-8226 leukemia
[42] = system: M14 melanoma
[43] = system: OVCAR-3 ovarian
[44] = system: OVCAR-5 ovarian
[45] = system: SK-MEL-28 melanoma
[46] = system: HCT-116 colon
[47] = system: HS 578T breast
[48] = system: K-562 leukemia
[49] = system: EKVX NSCLC
[50] = system: MOLT-4 leukemia
[51] = system: SNB-75 CNS
[52] = system: MDA-MB-231 breast
[53] = system: T-47D breast
[54] = system: SK-OV-3 ovarian
[55] = system: U251 CNS
[56] = system: A549 NSCLC
[57] = system: A498 renal
[58] = system: PC-3 prostate
[59] = system: SK-MEL-2 melanoma

COc1ccc(-c2nc3ccc(-c4nnc(SCc5ccccc5)o4)cc3[nH]2)cc1 showed a GI50 [1] of 3.71 µM, a TGI [1] of 16.3 µM and a GI50 [2] of 1.97 µM. The TGI [2] was 4.26 µM, the GI50 [3] was 4.76 µM and the TGI [3] was greater than 100 µM. It also gave a GI50 [4] of 2.64 µM, a TGI [4] of 9.41 µM and a GI50 [5] of 4.81 µM. The TGI [5] was 23.1 µM, the GI50 [6] was 11.3 µM and the TGI [6] was greater than 100 µM. The GI50 [7] was 1.81 µM, the TGI [7] was 3.58 µM and the GI50 [8] was 2.51 µM. The TGI [8] was 7.69 µM, the GI50 [9] was 3.48 µM and the TGI [9] was 12 µM. It also gave a GI50 [10] of 2.48 µM, a TGI [10] of 6 µM and a GI50 [11] of 2.27 µM. For the same compound, the TGI [11] was 7.08 µM, the GI50 [12] was 3.13 µM and the TGI [12] was 8.83 µM. It also gave a GI50 [13] of 1.98 µM, a TGI [13] of 3.81 µM and a GI50 [14] of 2.82 µM. For the same compound, the TGI [14] was 19.6 µM, the GI50 [15] was 3.17 µM and the TGI [15] was 9.51 µM. For the same compound, the GI50 [16] was 3.05 µM, the TGI [16] was 11.3 µM and the GI50 [17] was 2.07 µM. The TGI [17] was 4.88 µM, the GI50 [18] was 1.91 µM and the TGI [18] was 3.73 µM. It also gave a GI50 [19] of 7.81 µM, a TGI [19] of 21 µM and a GI50 [20] of 6.89 µM. It also gave a TGI [20] of 23.4 µM, a GI50 [21] of 7.02 µM and a TGI [21] of 44.2 µM. The GI50 [22] was 4.16 µM, the TGI [22] was 16.1 µM and the GI50 [23] was 2.79 µM. For the same compound, the TGI [23] was 15.5 µM, the GI50 [24] was 3.27 µM and the TGI [24] was 7.64 µM. The GI50 [25] was 6.46 µM, the TGI [25] was 24 µM and the GI50 [26] was 2.15 µM. It also gave a TGI [26] of 6.05 µM, a GI50 [27] of 1.76 µM and a TGI [27] of 3.84 µM. The GI50 [28] was 1.73 µM, the TGI [28] was 3.22 µM and the GI50 [29] was 10.7 µM. The TGI [29] was 23.9 µM, the GI50 [30] was 2.97 µM and the TGI [30] was 11.9 µM. For the same compound, the GI50 [31] was 15.9 µM, the TGI [31] was 89.1 µM and the GI50 [32] was 2.12 µM. It also gave a TGI [32] of 5.08 µM, a GI50 [33] of 13.2 µM and a TGI [33] of 78.9 µM. The GI50 [34] was 1.91 µM, the TGI [34] was 3.87 µM and the GI50 [35] was 3.53 µM. For the same compound, the TGI [35] was 13.7 µM, the GI50 [36] was 4.21 µM and the TGI [36] was 19.8 µM. It also gave a GI50 [37] of 2.36 µM, a TGI [37] of 7.36 µM and a GI50 [38] of 2.2 µM. For the same compound, the TGI [38] was 7.45 µM, the GI50 [39] was 2.86 µM and the TGI [39] was 12.8 µM. For the same compound, the GI50 [40] was 2.07 µM, the TGI [40] was 4.42 µM and the GI50 [41] was 2.96 µM. It also gave a TGI [41] of 17.4 µM, a GI50 [42] of 4.25 µM and a TGI [42] of 26.5 µM. For the same compound, the GI50 [43] was 2.82 µM, the TGI [43] was 6.37 µM and the GI50 [44] was 15.6 µM. For the same compound, the TGI [44] was 38.5 µM, the GI50 [45] was 3.14 µM and the TGI [45] was 12.2 µM. For the same compound, the GI50 [46] was 3.66 µM, the TGI [46] was 15.7 µM and the GI50 [47] was 2.77 µM. The TGI [47] was 7.29 µM, the GI50 [48] was 2.9 µM and the TGI [48] was 24.8 µM. The GI50 [49] was 3.98 µM, the TGI [49] was 16.6 µM and the GI50 [50] was 3.58 µM. It also gave a TGI [50] greater than 100 µM, a GI50 [51] of 1.66 µM and a TGI [51] of 3.27 µM. It also gave a GI50 [52] of 2.55 µM, a TGI [52] of 6.3 µM and a GI50 [53] of 2.02 µM. For the same compound, the TGI [53] was 4.84 µM, the GI50 [54] was 5.51 µM and the TGI [54] was 21.5 µM. For the same compound, the GI50 [55] was 2.07 µM, the TGI [55] was 4.6 µM and the GI50 [56] was 3.48 µM. For the same compound, the TGI [56] was 13.8 µM, the GI50 [57] was 2.17 µM and the TGI [57] was 3.97 µM. The GI50 [58] was 3.1 µM, the TGI [58] was 11.2 µM and the GI50 [59] was 2.44 µM. The TGI [59] was 7.73 µM.
